In US8278037B2, “N-acetylgalactosamine transferases and nucleic acids encoding the same” (National Institute of Advanced Industrial Science and …, priority 2002, dated 2012):

How the values were obtained:
Format in all cases: biochemical
NGalNAc-T2 [1] = target: T1, NGalNAc-T2 (Homo sapiens, UniProt Q6L9W6, K411R); assay: Requirements of divalent cations in the activity
Description: (§1) In addition, the value (263.21 dpm) of MES (pH 6.75) was adopted as a blank value in the case of a non-enzyme. Further, when pH of HEPES buffer was 7.4 for NGalNAc-T1 and 6.75 for NGalNAc-T2, the highest value was shown. […] Hereinafter, MES (pH 6.5) was used in each of experiments.
(§2) Generally, glycosyl transferases require frequently divalent cations. The activity of each enzyme was studied by adding various divalent cations. Consequently, the high values were represented when Mn^2+ in NGalNAc-T1, and Mg^2+, Mn^2+ and Co^2+ in NGalNAc-T2 were added (see Table 5). […] From the above results, it was explained that both enzymes require divalent cations.

NGalNAc-T1 [2] = target: T2, NGalNAc-T1 (Homo sapiens, UniProt Q76KP1); assay: Requirements of divalent cations in the activity
T2 sequence (Q76KP1 62-1039): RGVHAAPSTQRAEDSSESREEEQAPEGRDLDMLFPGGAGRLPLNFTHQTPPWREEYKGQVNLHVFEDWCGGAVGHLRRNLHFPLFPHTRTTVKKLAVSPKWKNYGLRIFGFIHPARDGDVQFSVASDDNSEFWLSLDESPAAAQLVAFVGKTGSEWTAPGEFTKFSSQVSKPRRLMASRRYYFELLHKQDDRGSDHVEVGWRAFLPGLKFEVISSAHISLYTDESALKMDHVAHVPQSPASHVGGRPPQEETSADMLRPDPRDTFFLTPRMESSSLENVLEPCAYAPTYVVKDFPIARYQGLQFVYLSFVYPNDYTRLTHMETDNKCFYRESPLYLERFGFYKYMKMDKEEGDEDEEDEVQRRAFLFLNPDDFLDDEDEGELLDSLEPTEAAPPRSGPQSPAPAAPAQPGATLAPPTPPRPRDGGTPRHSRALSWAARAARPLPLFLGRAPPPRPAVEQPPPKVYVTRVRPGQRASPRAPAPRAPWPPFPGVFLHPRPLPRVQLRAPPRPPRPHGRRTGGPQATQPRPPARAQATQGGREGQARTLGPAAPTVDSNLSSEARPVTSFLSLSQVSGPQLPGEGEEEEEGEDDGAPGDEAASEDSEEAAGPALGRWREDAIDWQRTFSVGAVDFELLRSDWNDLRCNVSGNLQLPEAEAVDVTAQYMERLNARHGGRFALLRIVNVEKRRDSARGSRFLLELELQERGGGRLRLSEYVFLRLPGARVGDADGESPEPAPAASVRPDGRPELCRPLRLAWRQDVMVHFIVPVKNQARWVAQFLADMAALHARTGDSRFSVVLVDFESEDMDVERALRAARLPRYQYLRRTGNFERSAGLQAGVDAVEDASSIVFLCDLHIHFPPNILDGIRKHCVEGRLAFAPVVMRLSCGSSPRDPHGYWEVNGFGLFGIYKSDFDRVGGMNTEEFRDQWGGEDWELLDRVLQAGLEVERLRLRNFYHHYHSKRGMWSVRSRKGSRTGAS
Description: as §1, §2

NGalNAc-T2 [3] = target: T1, NGalNAc-T2; assay: Search for acceptor substrates, each acceptor by itself; details: acceptor 10 nmol/20 μl by itself
Description: (§3) The acceptor substrates were prepared so that each of Gal-α-pNp, Gal-β-oNp, GalNAc-α-Bz, GalNAc-β-pNp, GlcNAc-α-pNp, GlcNAc-β-pNp, Glc-α-pNp, Glc-β-pNp, GlcA-β-pNp, Fuc-α-pNp, Man-α-pNp (thereinbefore, CALBIOCHEM Co.), Xyl-α-pNp, Xyl-β-pNp (thereinbefore, SIGMA Co.) was included in 2.5 nmol/20 μl. Further, the solutions of various donor substrates (UDP-GalNAc, UDP-GlcNAc, UDP-Gal, GDP-Man, UDP-GlcA, UDP-Xyl and GDP-Fuc, thereinbefore, SIGMA Co.) are shown in Table 3.
(§4) All of reaction times were 16 hours. After reaction, non-reactive acceptor substrates with radioactivity were removed with SepPack C18 column (Waters CO.), and radioactivity from donor substrates integrated into acceptor substrates was determined with a liquid scintillation counter.
(§5) Further, in order to investigate acceptors, reactions were performed using each acceptor (10 nmol/20 μl) by itself. As a result, significant radioactivity was detected in the case of GlcNAc-β-pNp (NGalNAc-T1: 256.26 dpm, NGalNAc-T2: 1221.22 dpm). Based on the above results, it was explained that both of NGalNAc-T1 and NGalNAc-T2 are glycosyl transferases capable of transferring GalNAc to GlcNAc-T.

NGalNAc-T1 [4] = target: T2, NGalNAc-T1; assay: as above; details: acceptor 10 nmol/20 μl by itself
Description: as §3, §4, §5

NGalNAc-T2 [5] = target: T1, NGalNAc-T2; assay: Assay for acceptor substrates of glycosyl-transferase activities (GalNAc-T assay, HPLC); details: Table 6, O-glycan type acceptors 500 μM; GlcNAcβ-Bz = 100
Description: (§6) For the reaction of GalNAc-T assay, 50 mM MES buffer (pH 6.5) containing 0.1% triton X-100, 1 mM UDP-GalNAc, 10 mM MnCl2 and 500 μM each acceptor substrate was used. A 10 μl of enzyme solution for 20 μl of each reaction mixture were added and incubated at 37° C. for various periods. After the incubation the mixture was filtrated with Ultrafree-MC column (Millipore, Bedford, Mass.), and 10 μl aliquot was subjected to reversed-phase high performance liquid chromatography (HPLC) on an ODS-80Ts QA column (4.6×250 mm; Tosoh, Tokyo, Japan). A 0.1% TFA/H2O with 12% acetonitrile was used as a running solution. An ultraviolet spectrophotometer (absorbance at 210 nm), SPD-10AVP (Shimazu, Kyoto, Japan) was used for detection of the peaks. When the pyridyl amino-labeled oligosaccharides were utilized as acceptor substrates, 50 nM substrates were added into the reaction mixtures. For the analyses of the products derived from pyridyl amino labeled oligosaccharides, 100 mM acetic acid/triethylamine (pH4.0) was used as a running solution and the products were eluted with a 30-70% gradient of 1% 1-butanol in running solution at a flow rate of 1.0 ml/min at 55° C.
(§7) To investigate the specificity for acceptor substrates, N- and O-glycans containing GlcNAc on their non-reducing termini were utilized.

NGalNAc-T1 [6] = target: T2, NGalNAc-T1; assay: as above; details: Table 6, O-glycan type acceptors 500 μM; GlcNAcβ-Bz = 100
Description: as §6, §7

NGalNAc-T2 [7] = target: T1, NGalNAc-T2; assay: Search for donor substrates, radioactive glycosyltransferase assay; details: mixed mono-saccharide acceptor substrates, 16 hours
Description: (§8) 15 μg of pFLAG-NGalNAc-T1 or pFLAG-NGalNAc-T2 was induced into 2×10^6 of COS-1, cells which were cultured overnight in DMEM (Dulbecco's modified Eagle's medium) including 10% FCS (fetal calf serum), using Lipofectamine 2000 (Invitrogen Co.) as a protocol provided by the same company. A supernatant of 48-72 hours was collected. The supernatant was mixed with NaN3 (0.05%), NaCl (150 mM), CaCl2 (2 mM) and an anti-M1 resin (Sigma Co.) (50 μl), and the mixture was stirred overnight at 4° C. The solution of reaction mixture was centrifuged (3000 rpm, 5 min, 4° C.) to collect a pellet. The pellet was combined with 900 μl of 2 mM CaCl2/TBS and re-centrifuged (2000 rpm, 5 min, 4° C.), after which the pellet was suspended in 200 μl of 1 mM CaCl2/TBS to give a sample for assaying activity (NGalNAc-T1 or NGalNAc-T2 enzyme solution).
(§9) A search for a donor substrate of the enzyme of the present invention was performed on various mono-saccharide acceptor substrates, using […] of enzyme solution and various acceptor substrates.
as §3, §4

NGalNAc-T1 [8] = target: T2, NGalNAc-T1; assay: as above; details: mixed mono-saccharide acceptor substrates, 16 hours
Description: as §8, §9, §3, §4

[9] = divalent cation etc. added, MES (pH 6.5)
[10] = divalent cation etc. added, MES (pH 6.5), blank 263.21 subtracted

SMILES | Incorporation of radioactivity (A) (NGalNAc-T2 [1]; [9]) [dpm] | (A) − (B) (NGalNAc-T2 [1]; [10]) [dpm] | Incorporation of radioactivity (A) (NGalNAc-T1 [2]; [9]) [dpm] | (A) − (B) (NGalNAc-T1 [2]; [10]) [dpm] | further results
[Ca+2].[Cl-].[Cl-] [CaCl2] | 217.83 | −45.38 | 230.78 | −32.43 | 
O=S(=O)([O-])[O-].[Cd+2] [CdSO4] | 217.92 | −45.29 | 203.39 | −59.82 | 
[Cl-].[Cl-].[Co+2] [CoCl2] |  |  |  |  | enzyme activity on adding divalent cation, in words (NGalNAc-T2 [1]): high values; (A) − (B) (NGalNAc-T2 [1]; pH 6.5): 867.42 dpm; Incorporation of radioactivity (A) (NGalNAc-T2 [1]; pH 6.5): 1130.63 dpm; (A) − (B) (NGalNAc-T1 [2]; pH 6.5): −22.30 dpm; Incorporation of radioactivity (A) (NGalNAc-T1 [2]; pH 6.5): 240.91 dpm
O=C(O)CN(CCN(CC(=O)O)CC(=O)O)CC(=O)O [EDTA] | 235.28 | −27.93 | 242.38 | −20.83 | 
CC(=O)N[C@H]1[C@H](Oc2ccc([N+](=O)[O-])cc2)O[C@H](CO)[C@@H](O)[C@@H]1O [GlcNAc-β-pNp] |  |  |  |  | radioactivity detected (NGalNAc-T2 [3]): 1221.22 dpm; radioactivity detected (NGalNAc-T1 [4]): 256.26 dpm
CC(=O)NC1C(OC2C(O)C(CO)OC(Oc3ccc([N+](=O)[O-])cc3)C2NC(C)=O)OC(CO)C(O)C1O (centres unmarked) [GlcNAcβ1-3GalNAcα-pNp] |  |  |  |  | Relative activity (%) (NGalNAc-T2 [5]): 32.3%; Relative activity (%) (NGalNAc-T1 [6]): 20.0%
CC(=O)N[C@H]1[C@H](OC[C@H]2O[C@H](Oc3ccc([N+](=O)[O-])cc3)[C@H](NC(C)=O)[C@@H](O[C@@H]3O[C@H](CO)[C@H](O)[C@H](O)[C@H]3O)[C@H]2O)O[C@H](CO)[C@@H](O)[C@@H]1O [GlcNAcβ1-6(Galβ1-3)GalNAcα-pNp] |  |  |  |  | Relative activity (%) (NGalNAc-T2 [5]): 11.4%; Relative activity (%) (NGalNAc-T1 [6]): 15.2%
CC(=O)N[C@H]1[C@@H](Oc2ccc([N+](=O)[O-])cc2)O[C@H](CO[C@@H]2O[C@H](CO)[C@@H](O)[C@H](O)[C@H]2NC(C)=O)[C@H](O)[C@@H]1O [GlcNAcβ1-6GalNAcα-pNp] |  |  |  |  | Relative activity (%) (NGalNAc-T2 [5]): 220.4%; Relative activity (%) (NGalNAc-T1 [6]): 190.7%
CC(=O)N[C@H]1[C@H](OCc2ccccc2)O[C@H](CO)[C@@H](O)[C@@H]1O [GlcNAcβ-Bz] |  |  |  |  | Relative activity (%) (NGalNAc-T2 [5]): 100%; Relative activity (%) (NGalNAc-T1 [6]): 100%
CC(=O)N[C@H]1[C@@H](OP(=O)(O)OP(=O)(O)OC[C@H]2O[C@@H](n3ccc(=O)[nH]c3=O)[C@H](O)[C@@H]2O)O[C@H](CO)[C@H](O)[C@@H]1O [UDP-GalNAc, UDP-N-acetyl-D-galactosamine] |  |  |  |  | activity with donor substrate (radioactivity integrated into acceptor substrates) (NGalNAc-T2 [7]): highest activity; activity with donor substrate (radioactivity integrated into acceptor substrates) (NGalNAc-T1 [8]): highest activity
O=C(O)[C@H]1O[C@H](OP(=O)(O)OP(=O)(O)OC[C@H]2O[C@@H](n3ccc(=O)[nH]c3=O)[C@H](O)[C@@H]2O)[C@H](O)[C@@H](O)[C@@H]1O [UDP-GlcA] |  |  |  |  | activity with donor substrate (radioactivity integrated into acceptor substrates) (NGalNAc-T2 [7]): little background; activity with donor substrate (radioactivity integrated into acceptor substrates) (NGalNAc-T1 [8]): little background

Now from value to compound, other results behind:

Incorporation of radioactivity (A) (NGalNAc-T2 [1]; [9]) [dpm] | (A) − (B) (NGalNAc-T2 [1]; [10]) [dpm] | Incorporation of radioactivity (A) (NGalNAc-T1 [2]; [9]) [dpm] | (A) − (B) (NGalNAc-T1 [2]; [10]) [dpm] | SMILES | further results
218.35 | −44.86 | 278.77 | 15.56 | [Cl][Cu][Cl] [CuCl2] | 
3124.16 | 2860.95 | 256.36 | −6.85 | [Cl-].[Cl-].[Mg+2] [MgCl2] | enzyme activity on adding divalent cation, in words (NGalNAc-T2 [1]): high values
1484.43 | 1221.22 | 519.47 | 256.26 | [Cl][Mn][Cl] [MnCl2] | enzyme activity on adding divalent cation, in words (NGalNAc-T2 [1]): high values; enzyme activity on adding divalent cation, in words (NGalNAc-T1 [2]): high values
187.59 | −75.62 | 210.29 | −52.92 | [Cl-].[Cl-].[Zn+2] [ZnCl2] | 
